According to article PMC4076210, “Discovery of Novel AKT Inhibitors with Enhanced Anti-Tumor Effects in Combination with the MEK Inhibitor” (PLoS ONE, 2014):
Like-named read-outs stand apart in the source and are kept apart here.

What was measured:
Test in all cases: Kinase panel
Assay type in all cases: biochemical
ARK5(h) = molecular target: T1, ARK5(h) (Homo sapiens, UniProt O60285)
T1 construct: purchased Millipore KinaseProfiler
T1 sequence (O60285 1-661): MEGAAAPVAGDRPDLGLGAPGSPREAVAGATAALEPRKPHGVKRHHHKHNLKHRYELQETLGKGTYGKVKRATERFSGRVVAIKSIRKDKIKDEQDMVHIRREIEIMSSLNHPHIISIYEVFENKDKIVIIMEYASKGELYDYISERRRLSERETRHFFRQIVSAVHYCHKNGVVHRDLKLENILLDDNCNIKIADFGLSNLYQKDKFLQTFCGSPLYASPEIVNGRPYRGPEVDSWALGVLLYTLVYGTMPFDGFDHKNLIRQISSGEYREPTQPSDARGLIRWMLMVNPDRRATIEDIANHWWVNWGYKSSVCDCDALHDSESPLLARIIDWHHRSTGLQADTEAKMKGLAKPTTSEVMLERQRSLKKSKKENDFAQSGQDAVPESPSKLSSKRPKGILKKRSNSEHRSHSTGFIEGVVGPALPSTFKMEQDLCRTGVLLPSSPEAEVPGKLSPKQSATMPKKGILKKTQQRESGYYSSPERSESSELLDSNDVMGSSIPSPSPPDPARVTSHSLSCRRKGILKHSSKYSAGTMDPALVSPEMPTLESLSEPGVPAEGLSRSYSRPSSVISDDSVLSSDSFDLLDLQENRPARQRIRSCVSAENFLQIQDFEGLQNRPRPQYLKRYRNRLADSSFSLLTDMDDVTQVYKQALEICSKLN

JAK3(h) = molecular target: T2, JAK3(h) (Homo sapiens, UniProt P52333)
T2 construct: purchased Millipore KinaseProfiler
T2 sequence (P52333 1-1124): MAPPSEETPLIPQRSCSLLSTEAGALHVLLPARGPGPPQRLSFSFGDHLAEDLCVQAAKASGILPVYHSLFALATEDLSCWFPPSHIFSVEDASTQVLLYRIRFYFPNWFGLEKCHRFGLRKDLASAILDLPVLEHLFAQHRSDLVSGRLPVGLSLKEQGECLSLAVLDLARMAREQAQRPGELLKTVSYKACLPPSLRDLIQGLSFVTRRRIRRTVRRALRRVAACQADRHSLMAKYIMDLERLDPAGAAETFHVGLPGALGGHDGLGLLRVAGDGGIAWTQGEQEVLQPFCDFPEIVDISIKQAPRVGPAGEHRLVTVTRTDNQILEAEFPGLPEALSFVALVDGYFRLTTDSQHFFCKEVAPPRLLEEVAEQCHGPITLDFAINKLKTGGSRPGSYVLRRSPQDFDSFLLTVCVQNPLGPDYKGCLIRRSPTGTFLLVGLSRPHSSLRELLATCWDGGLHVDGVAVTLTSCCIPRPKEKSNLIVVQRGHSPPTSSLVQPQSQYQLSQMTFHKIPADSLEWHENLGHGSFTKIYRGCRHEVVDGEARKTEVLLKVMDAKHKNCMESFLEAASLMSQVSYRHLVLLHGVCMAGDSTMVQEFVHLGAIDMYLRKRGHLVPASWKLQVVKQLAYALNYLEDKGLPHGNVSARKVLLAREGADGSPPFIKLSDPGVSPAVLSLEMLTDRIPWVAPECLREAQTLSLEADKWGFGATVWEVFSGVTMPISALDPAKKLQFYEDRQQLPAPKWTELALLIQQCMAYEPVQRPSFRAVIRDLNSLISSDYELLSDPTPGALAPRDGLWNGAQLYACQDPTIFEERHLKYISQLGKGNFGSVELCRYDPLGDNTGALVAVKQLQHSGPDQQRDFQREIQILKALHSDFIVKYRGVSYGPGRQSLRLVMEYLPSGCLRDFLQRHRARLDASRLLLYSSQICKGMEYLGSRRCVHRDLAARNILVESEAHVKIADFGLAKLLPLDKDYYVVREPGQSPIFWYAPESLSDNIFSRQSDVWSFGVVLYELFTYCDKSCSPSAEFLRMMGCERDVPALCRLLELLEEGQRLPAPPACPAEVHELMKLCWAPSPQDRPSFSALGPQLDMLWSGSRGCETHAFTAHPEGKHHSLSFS

LKB1(h) = molecular target: T3, LKB1(h) (Homo sapiens, UniProt Q15831)
T3 construct: purchased Millipore KinaseProfiler
T3 sequence (Q15831 1-433): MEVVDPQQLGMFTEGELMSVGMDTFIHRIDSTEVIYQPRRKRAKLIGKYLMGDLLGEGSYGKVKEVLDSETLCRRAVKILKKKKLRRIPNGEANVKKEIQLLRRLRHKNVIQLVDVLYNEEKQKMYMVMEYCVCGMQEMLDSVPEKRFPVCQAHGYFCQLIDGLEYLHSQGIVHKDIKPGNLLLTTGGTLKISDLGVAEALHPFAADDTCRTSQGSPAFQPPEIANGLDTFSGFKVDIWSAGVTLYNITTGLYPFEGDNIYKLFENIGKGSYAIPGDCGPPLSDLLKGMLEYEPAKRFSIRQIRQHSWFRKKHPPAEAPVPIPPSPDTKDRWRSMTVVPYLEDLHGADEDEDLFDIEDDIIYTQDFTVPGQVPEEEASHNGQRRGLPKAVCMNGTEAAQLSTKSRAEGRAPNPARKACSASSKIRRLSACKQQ
T3 sequence (Q7RTN6 1-431 partner): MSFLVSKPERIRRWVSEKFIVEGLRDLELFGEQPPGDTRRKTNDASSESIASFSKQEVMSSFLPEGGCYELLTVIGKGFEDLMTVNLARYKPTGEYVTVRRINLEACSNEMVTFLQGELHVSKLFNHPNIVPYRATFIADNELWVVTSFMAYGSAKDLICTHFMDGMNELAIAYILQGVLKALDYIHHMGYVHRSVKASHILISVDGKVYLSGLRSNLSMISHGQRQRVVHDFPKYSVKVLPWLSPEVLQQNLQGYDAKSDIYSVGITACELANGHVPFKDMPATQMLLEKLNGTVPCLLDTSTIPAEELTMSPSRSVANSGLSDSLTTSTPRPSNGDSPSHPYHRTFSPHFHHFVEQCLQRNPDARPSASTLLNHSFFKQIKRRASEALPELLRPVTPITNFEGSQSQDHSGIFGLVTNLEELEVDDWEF
T3 sequence (Q9Y376 1-341 partner): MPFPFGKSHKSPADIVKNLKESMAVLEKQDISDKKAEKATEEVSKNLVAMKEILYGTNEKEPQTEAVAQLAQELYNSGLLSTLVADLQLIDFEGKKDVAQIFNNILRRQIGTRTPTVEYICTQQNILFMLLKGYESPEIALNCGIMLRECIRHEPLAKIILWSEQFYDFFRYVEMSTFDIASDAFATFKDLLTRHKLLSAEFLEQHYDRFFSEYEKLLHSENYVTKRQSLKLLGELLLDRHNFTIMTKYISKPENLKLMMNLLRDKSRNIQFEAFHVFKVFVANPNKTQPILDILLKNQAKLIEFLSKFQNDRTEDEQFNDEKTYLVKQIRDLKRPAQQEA

Row | Compound | inhibition at 0.5 µM (ARK5(h)) | inhibition at 10 µM (ARK5(h)) | inhibition at 0.5 µM (JAK3(h)) | inhibition at 10 µM (JAK3(h)) | inhibition at 0.5 µM (LKB1(h)) | inhibition at 10 µM (LKB1(h)) | inhibition at 0.5 µM (ARK5(h); 0.5 µM, read-out: % Inhibition) | inhibition at 10 µM (ARK5(h); 10 µM, read-out: % Inhibition) | inhibition at 0.5 µM (JAK3(h); 0.5 µM, read-out: % Inhibition) | inhibition at 10 µM (JAK3(h); 10 µM, read-out: % Inhibition) | inhibition at 0.5 µM (LKB1(h); 0.5 µM, read-out: % Inhibition) | inhibition at 10 µM (LKB1(h); 10 µM, read-out: % Inhibition)
1 | Cn1ncc(Cl)c1-c1cc(C(=O)N[C@H](CN)Cc2cccc(F)c2)sc1Cl [GSK2110183] | -6% | 9% | 6% | -3% | -2% | 40% | – | – | – | – | – | –
2 | Cn1ncc(Cl)c1-c1cc(C(=O)N[C@H](CN)Cc2ccc(F)c(F)c2)oc1Cl [GSK2141795] | – | – | – | – | – | – | -5% | 18% | -6% | -14% | -18% | 18%
